Patent US20240360153A1 (Regeneron Pharmaceuticals, Inc., priority 2023, published 2024)

Key:
[1] = In vitro microsomal metabolic stability, CD-1 mouse liver microsomes; format: in vitro ADME; settings: for Remaining (T = 60 min): with NADPH; for Remaining (T = NCF60 min): without NADPH regenerating system; for Remaining (T = 60 min) / Remaining (T = NCF60 min): 60 min
Method: (§1) Buffers: PBK Buffer: 50 mM potassium phosphate buffer (PPB), pH 7.2, with 3.3 mM Magnesium Chloride.
(§2) TA Intermediate solution: Compound or control (3 μL) diluted from stock solution (10 mM) with 297 μL 90.0% methanol/water. (Conc: 100 μM; 1.0% DMSO, 89.1% MeOH).
(§3) Control cocktail intermediate solution: Each control (3 μL) was diluted with 291 μL 90.0% methanol/water.
(§4) Diluted TA intermediate stock solution and PC control stock were made by transferring 80 μL of 100 μM TA stock solution into new tubes and then adding 720 μL of 1.0% DMSO in 50 mM potassium phosphate buffer (conc. 10 μM; 1.0% DMSO, 8.91% MeOH).
(§5) Preparation of Liver microsomes working solution (1.25×)(final Conc.: 0.5 mg/mL).
(§6) Acetonitrile:methanol (9:1, v/v)(including 200 ng/mL tolbutamide and 200 ng/ml labetalol hydrochloride as internal standards).
(§7) Working solution: Intermediate solution (80 μL) was diluted with 720 μL 1.0% DMSO in 50 mM potassium phosphate buffer (Conc.: 10 μM; 1.0% DMSO, 8.91% MeOH)
(§8) Procedure: Stock solution was added to each of the time point plates. Microsomes solution (360 μL/well), TA/PC (45 μL/well), and NADPH (45 μL/well) min. (Conc: 1.0 μM, 0.10% DMSO, 0.891% MeOH) were added to the incubation plates. To the T60 and NCF60 plate, TA (15 ul/well) and Microsomes (120 ul) were added. To the blank plate, microsome (50 ul/well) with stop solution (150 ul/well) were added. At the end of each time point, 50 ul/well was aliquoted from the incubation plate. The sampling plates were shaken for approximately 10 min. on a shaker and the samples were centrifuged at 4000 rpm for 15 min. Supernatant (120 μL) was transferred for LC/MS/MS.Compounds from Table 3 were incubated at 37° C. with liver microsomes (pooled from multiple donors) at 1 μM in the presence of a NADPH regenerating system at 0.5 mg/ml microsomal protein. Positive controls included testosterone (3A4 substrate), propafenone (2D6) and diclofenac (2C9), which were incubated with microsomes in the presence of an NADPH regenerating system. At time points (0, 5, 10, 20, 30 and 60 minutes), samples were removed and immediately mixed with cold acetonitrile containing the internal standard (IS). Test compounds incubated with microsomes without the NADPH regenerating system for 60 min are also included. A single point for each test condition (n=1) was obtained, and samples were analyzed by LC/MS/MS. Disappearance of the test compound was assessed based on peak area ratios of analyte/IS (no standard curve).

[2] = In vitro microsomal metabolic stability, human liver microsomes; format: in vitro ADME; settings: for Remaining (T = 60 min): with NADPH; for Remaining (T = NCF60 min): without NADPH regenerating system; for Remaining (T = 60 min) / Remaining (T = NCF60 min): 60 min
Method: as §1, §2, §3, §4, §5, §6, §7, §8

[3] = Mouse liver microsomes, 1 μM, 0.5 mg/ml protein, NADPH
[4] = CD-1, mouse, mouse liver microsomes, pH 7.2
[5] = human, human liver microsomes, pH 7.2

## CO[C@H]1C[C@@H]2CC[C@@H](C)[C@@](O)(O2)C(=O)C(=O)N2CCCC[C@H]2C(=O)O[C@H]([C@H](C)C[C@@H]2CC[C@@H](O)[C@H](OC)C2)CC[C@H](C)/C=C(\C)[C@@H](O)[C@@H](OC)C(=O)[C@H](C)C[C@H](C)/C=C/C=C/C=C/1C [32-Deoxo Rapamycin, 32-deoxorapamycin, reference compound]
[1]; Mouse liver microsomes
  CL: 35.1 µL/min/mg
  CLint: 139 mL/min/kg
  Remaining (T = 60 min): 36%
  Remaining (T = NCF60 min): 110%
[1]; [3]
  T1/2: 39.5 min
[2]; Human liver microsomes
  CL: 405 µL/min/mg
  CLint: 364 mL/min/kg
  Remaining (T = 60 min): 0.00%
  Remaining (T = NCF60 min): 96%
[2]; Human liver microsomes, 1 μM, 0.5 mg/ml protein, NADPH
  T1/2: 3.4 min

## CO[C@@H]1C[C@H](C[C@@H](C)[C@@H]2CC[C@H](C)/C=C(\C)[C@@H](O)[C@@H](OC)C(=O)[C@H](C)C[C@H](C)/C=C/C=C/C=C(\C)C(Nc3ccsc3)C[C@@H]3CC[C@@H](C)[C@@](O)(O3)C(=O)C(=O)N3CCCCC3C(=O)O2)CC[C@H]1O (stereo partly drawn) [Compound 60, (3S,6S,7E,9R,10R,12R,14S,15E,17E,19E,23S,26R,27R,34aS)-9,27-dihydroxy-3-((R)-1-((1S,3R,4R)-4-hydroxy-3-methoxycyclohexyl)propan-2-yl)-10-methoxy-6,8,12,14,20,26-hexamethyl-21-(thiophen-3-ylamino)-5,6,9,10,12,13,14,21,22,23,24,25,26,27,32,33,34,34a-octadecahydro-3H-23,27-epoxypyrido[2,1-c][1]oxa[4]azacyclohentriacontine-1,11,28,29(4H,31H)-tetraone]
[1]; [4]
  CLint scaled at 1 µM: 370 mL/min/kg
  microsomal CLint at 1 µM: 93.5 µL/min/mg
[1]; CD-1, pH 7.2, Mouse liver microsomes, 1 μM, 0.5 mg/ml protein, NADPH
  half-life at 1 µM: 14.8 min
[1]; Mouse liver microsomes
  Remaining (T = 60 min): 5.6%
  Remaining (T = NCF60 min): 75%
[2]; Human liver microsomes
  Remaining (T = 60 min): 6.6%
  Remaining (T = NCF60 min): 99%
[2]; [5]
  CLint scaled at 1 µM: 80.4 mL/min/kg
  microsomal CLint at 1 µM: 89.3 µL/min/mg
[2]; pH 7.2, Human liver microsomes, 1 μM, 0.5 mg/ml protein, NADPH
  half-life at 1 µM: 16 min

## Rapamycin [reference compound]
[1]; Mouse liver microsomes
  CL: 43.1 µL/min/mg
  CLint: 171 mL/min/kg
  Remaining (T = 60 min): 27%
  Remaining (T = NCF60 min): 102%
[1]; [3]
  T1/2: 32.1 min
